Test results taken from patent publication US6746688B1, “Apparatus for the transdermal treatment of Parkinson's disease” (Neuroderm Ltd., priority 1996, dated 2004).
Like-named read-outs stand apart in the source and are kept apart here.

What was measured:
Parkinson's disease = conditions: Refs. 19-21; cited from earlier work
[1] = Solubility of LD derivatives in potential solvents; format: physicochemical
Text: The solubility of LD, LD methyl ester (LDME) and LD ethyl ester (LDEE) was examined in several potential solvents, with increasing amounts of the three LD derivatives being added to a constant volume of 5% propionic acid in water or 10% propionic acid in propylene glycol.

[2] = Stability of LDEE in formulations by thin layer chromatography; format: physicochemical
Method: The stability of LDEE was tested in several combinations of potential components of the formulation. For this purpose, 500 mg LDEE was dissolved in 1 ml 5% propionic acid just before the beginning of the stability experiment. In parallel, 500 mg LDEE was dissolved in 1 ml propylene glycol containing 10% propionic acid. These preparations of LDEE were used as stock solutions for several tested formulations as follows: […]
1) LDEE in aqueous solution of 5% propionic as prepared above.
2) Same solution as in No. 1 above+5% sodium deoxycholate.
3) Same solution as in No. 1 above+5% sodium dodecylsulfate.
4) Same solution as in No. 1 above+5% Tween-20.
5) Same solution as in No. 1 above+5% tritonX100.
6) Same solution as in No. 1 above+glycerol at a ratio of 1:1.
7) Same solution as in No. 1 above+propylene glycol at a ratio of 2:1.
8) LDEE in propylene glycol containing 10% propionic acid.
9) Same solution as in No. 8 above+5% sodium deoxycholate.
10) Same solution as in No. 8 above+5% sodium dodecylsulfate.
The above LDEE formulations were run on a thin layer chromatography (on silica gel—Merk Art. 5735; and on cellulose—Merk Art. 5574) for a qualitative detection of LDEE and its degradative products. The various LDEE formulations were kept at room temperature for several days and separation of the LDEE and its degradative products on the thin layer chromatography were repeated at various times after dissolving the LDEE. The running solvents for the thin layer chromatography were:
a) Propanol: Butanoic Acid: Water (20:4:10).
b) Dichloromethane: Acetone: Ethyl-Acetate: Methanol (35:15:1:0.25).

[3] = Pilot experiment of transdermal delivery, LDEE in serum by HPLC with electrochemical detector; format: in vivo; conditions: two human volunteers, 24 h dermal exposure, propylene glycol with 10% propionic acid and 5% sodium deoxycholate or sodium dodecylsulfate
Method: In a pilot experiment of transdermal delivery, two human volunteers were exposed for 24 h to LDEE dissolved in propylene glycol containing 10% propionic acid and 5% of either sodium deoxycholate (one volunteer) or sodium dodecylsulfate (one volunteer). Blood samples were taken at various times after the application of the LDEE on the skin and LDEE in the serum was separated on high performance liquid chromatography and determined with an electrochemical detector. The protocol and the details of this pilot study are described in the enclosed appendix. […] These levels are considered appropriate for obtaining therapeutic effect in Parkinson's patients.

Compound	LD plasma levels at which therapeutic effects were noticed (Parkinson's disease) [ng/mL]	solubility [1]	degradative products on thin layer chromatography ([2]; 24 h after dissolving, room temperature, formulations that contained tritonX100)	degradative products on thin layer chromatography ([2]; 24 h after dissolving, room temperature, other formulations (without tritonX100))	degradative products on thin layer chromatography ([2]; 48 h after dissolving, room temperature, all the aqueous solutions)	order of degradation among aqueous formulations ([2]; 48 h after dissolving, room temperature, aqueous solutions)	degradative products on thin layer chromatography ([2]; immediately after the preparation, all formulations)	time LDEE was stable ([2]; propylene glycol-based formulations, room temperature)	blood levels of LDEE after dermal application [3]	solubility ([1]; 5% propionic acid in water)	solubility ([1]; 10% propionic acid in propylene glycol)
N[C@@H](Cc1ccc(O)c(O)c1)C(=O)O [LD, Levodopa]	300 to 800	negligible amounts									
CCOC(=O)[C@@H](N)Cc1ccc(O)c(O)c1 [LDEE, levodopa-ethyl-ester]		at least 660 mg in 1 ml	Degradative products appeared	did not show significant degradation	degradative products appeared	formulation containing tritonX100>formulation containing Tween-20 >formulation containing sodium dodecylsulfate=formulation containing sodium deoxycholate	No degradative products were seen	more than 48 h	about 200 ng/ml		
COC(=O)[C@@H](N)Cc1ccc(O)c(O)c1 [LDME, LD methyl ester]										negligible amounts	negligible amounts
